Legend:
[1] = Vinpocetine, edaravone, oxiracetam in blood and brain tissue 0.5 h after intragastric administration, UPLC-MS (Example 6); assay type: in vivo; conditions: rat, oral, SD rats, intragastric 100 mg/kg
Procedure: Treatment Group: LXN6, LXN7, LXN8 were made into suspensions respectively. Five SD rats were administered the suspensions at the dose of 100 mg/kg and the volume of 20 ml/kg by intragastric administration;
Control group: vinpocetine, edaravone, oxiracetam were made into suspension. Five SD rats were administered the suspension at the dose of 100 mg/kg and the volume of 20 ml/kg by intragastric administration;
The rats were drewd blood 0.5 h after administration, then sacrificed under anaesthesia. Brain tissues were taken to prepare brain homogenates. The content of active ingredient in the blood and brain tissues was detected by UPLC-MS.

MCAO forebrain ischemia [2] = assay: MCAO forebrain ischemia rats, infarction area, nerve regeneration, learning and memory (Example 6); assay type: in vivo; conditions: 100 mg vinpocetine/edaravone/oxiracetam per kg, intragastric, 7 days after administration
Procedure: In addition, 70 rats of MCAO forebrain ischemia were prepared, and they were administrated with solvent saline, or administrated with LXN6, LXN7 or LXN8, containing vinpocetine, edaravone or oxiracetam, respectively, at a dosage of 100 mg vinpocetine/edaravone/oxiracetam per kg body weight, or administrated with vinpocetine, edaravone or oxiracetam at a dosage of 100 mg/kg.
Intragastric administration at an amount of 20 ml/kg was conducted, for 10 rats per group; Animals were sacrificed 7 days after administration, to observe the improvement rate of cerebral infarction area and the improvement rate of nerve regeneration, learning and memory ability.

[3] = cited from earlier work
[4] = Levodopa in blood and brain tissues 0.5 h after intragastric administration, UPLC-MS (Example 7); assay type: in vivo; conditions: rat, oral, SD rats, intragastric 100 mg/kg levodopa
Procedure: Five SD rats were administered the suspension at the dose of 100 mg/kg levodopa and the volume of 20 ml/kg by intragastric administration;
Control group: The levodopa was made into suspension. Five SD rats were administered the suspension at the dose of 100 mg/kg and the volume of 20 ml/kg by intragastric administration;
The rats were drew blood 0.5 h after administration, and then sacrificed under anaesthesia. Brain tissues were taken to prepare brain homogenates. The content of active ingredient in the blood and brain tissues was detected by UPLC-MS.

[5] = test system: 6-hydroxydopamine PD models; assay: 6-hydroxydopamine PD model rats, behavioural indexes; assay type: in vivo; conditions: 6-hydroxydopamine PD rats, 100 mg/kg levodopa by gavage, 15 days
Procedure: Animals were administered for 15 days, to observe the changes of five indexes, including slow-moving test, grasping experiment, tail stiffness, change of tonic symptoms and tremor test.

Parkinson's disease = assay: Clinical treatment of Parkinson's disease (LXN9, LXN10, levodopa); assay type: in vivo, human
From the text: (1) Clinical Data and Methods • Same as above.
Profile of patients: All selected patients were from department of neurology, which diagnosed with Parkinson's disease according to the Parkinson's disease diagnostic criteria in clinical examination during 2010-2014. a total of 120 cases, including 66 males, 54 females; aged 50-78 years, and 62.8 years on average, with the shortest duration of 1 year, and longest duration of 13 years, 3.6 years on average.
Levodopa tablet group: (specification of 250 mg/tablet) 1 tablet/time, 3 times/d.
LXN 10 capsule group: 250 mg/capsule, 1 capsule per time, 3 times a day.
Fifteen days as a course in all groups, a total of 9 months for medication; and during the period, other drugs regulating cerebral vasodilation, brain cell metabolism and neurological functions were discontinued. […]

[6] = Rb1 in blood and brain tissues 0.5 h after intragastric administration, UPLC-MS (Example 1); assay type: in vivo; conditions: SD rats, equivalent to ginsenoside Rb1 100 mg/kg, 0.5 h after administration
Procedure: Treatment Group: The LXN1-1 and LXN1-2 were made into suspension, administered to SD rats by intragastric administration. Five rats were given 20 ml/kg according to the dose of 125/150 mg/kg (equivalent to ginsenoside Rb1 100 mg/kg);
Control group: ginsenoside […] extract was made into suspension, administered to SD rats by intragastric administration. Five rats were given ginsenoside Rb1 at the volume of 20 ml/kg according to the dose of 100 mg/kg;
The rats were drew blood 0.5 h after administration and then sacrificed under anaesthesia. Brain tissues were taken to prepare brain homogenates. The content of TCM active ingredient in the blood and brain tissues was detected by UPLC-MS.

MCAO forebrain ischemia [7] = assay: MCAO forebrain ischemia rats, improvement rate of cerebral infarction area (Example 1); assay type: in vivo; conditions: gavage, 7 days after administration
Procedure: (§1) In addition, […] of MCAO forebrain ischemia were prepared, and they were administered solvent saline, 100 mg/kg LXN1 or ginsenoside Rb1 by gavage at 20 ml/kg, 10 rats per group; Animals were sacrificed 7 days after administration, to observe the improvement rate of cerebral infarction area.

MCAO forebrain ischemia [8] = assay: MCAO forebrain ischemia rats, improvement rate of cerebral infarction area (Example 2); assay type: in vivo; conditions: gavage, 7 days after administration
Procedure: as §1, with “administered with” for “administered”, “LXN11 and” for “LXN1 or”, “Rg1” for “Rb1”

[9] = Stilbene glucoside in blood and brain tissues 0.5 h after intragastric administration, UPLC-MS (Example 3); assay type: in vivo; conditions: SD rats, 100 mg/kg stilbene glucoside, 0.5 h after administration
Procedure: Treatment Group: LXN2-1 and LXN2-2 were made into suspension. 5 SD rats were administered the suspension with the dose of 100 mg/kg stilbene glucoside and the volume of 20 ml/kg by intragastric administration;
Control group: stilbene glucoside extract was made into suspension. 5 SD rats were administered the suspension at the dose of 100 mg/kg stilbene glucoside and the volume of 20 ml/kg by intragastric administration;
The rats were drew blood 0.5 h after administration and then sacrificed under anaesthesia. Brain tissues were taken to prepare brain homogenates. The content of stilbene glucoside in the blood and brain tissues were detected by UPLC-MS.

[10] = test system: 4-VO local cerebral ischemia; assay: 4-VO local cerebral ischemia rats, nerve regeneration, learning and memory (Example 3); assay type: in vivo; conditions: 4-VO rats, gavage, 7 days after administration
Procedure: In addition, 40 rats of 4-VO local cerebral ischemia were prepared and they were administered with solvent saline, 100 mg/kg […], […] and stilbene glucoside by gavage at the volume of 20 ml/kg, 10 rats per group; Animals were sacrificed 7 days after administration, to observe the improve rate of nerve regeneration, learning and memory.

CC1=NN(c2ccccc2)C(=O)C1 [Edaravone, edaravone]
concentration at 0.5 h ([1]; blood, read-out: Edaravone content in the blood): 58300 ng/mL
concentration at 0.5 h ([1]; brain, read-out: Edaravone content in the brain tissue): 128 ng/mL
Improvement rate of learning and memory (MCAO forebrain ischemia [2]): 45.1
Infarction area (MCAO forebrain ischemia [2]): 24.1%
Nerve regeneration rate (MCAO forebrain ischemia [2]): 80%
Space exploration distance (MCAO forebrain ischemia [2]): 51.0 cm

COc1ccc([C@@H]2CC(=O)c3c(O)cc(O[C@@H]4O[C@H](CO[C@@H]5O[C@@H](C)[C@H](O)[C@@H](O)[C@H]5O)[C@@H](O)[C@H](O)[C@H]4O)cc3O2)cc1O [Hesperidin]
solubility in water [3]: insoluble in water

O=c1c(O)c(-c2ccc(O)cc2)oc2cc(O)cc(O)c12 [Kaempferol]
solubility in water [3]: slightly soluble in water

N[C@@H](Cc1ccc(O)c(O)c1)C(=O)O [Levodopa, levodopa]
concentration at 0.5 h ([4]; blood, read-out: levodopa Content in the blood): 114000 ng/mL
concentration at 0.5 h ([4]; brain, read-out: levodopa Content in the brain tissues): 284 ng/mL
Duration of slow-moving test [5]: 15.5 min
EMG group discharge frequency [5]: 3.1 times/sec
Grip Test Duration [5]: 40.1 min
Muscle tremor frequency [5]: 10.1 times, minutes
tail stiffness time [5]: 10.2 min
Daily Living Activity (UPDRS-II) Score, 1 month after treatment (Parkinson's disease; PD patients, n=40): 14.12 ± 5.31
Daily Living Activity (UPDRS-II) Score, 3 months after treatment (Parkinson's disease; PD patients, n=40): 12.49 ± 5.10
Daily Living Activity (UPDRS-II) Score, 6 months after treatment (Parkinson's disease; PD patients, n=40): 11.12 ± 3.31
Daily Living Activity (UPDRS-II) Score, 12 months after treatment (Parkinson's disease; PD patients, n=40): 10.32 ± 3.31
Daily Living Activity (UPDRS-II) Score, Before treatment (Parkinson's disease; PD patients, n=40): 15.61 ± 5.71
daily life satisfaction (LSIB) scores, 1 month after treatment (Parkinson's disease; PD patients, n=40): 13.11 ± 3.92
daily life satisfaction (LSIB) scores, 3 months after treatment (Parkinson's disease; PD patients, n=40): 14.91 ± 3.16
daily life satisfaction (LSIB) scores, 6 months after treatment (Parkinson's disease; PD patients, n=40): 16.85 ± 3.15
daily life satisfaction (LSIB) scores, 12 months after treatment (Parkinson's disease; PD patients, n=40): 17.24 ± 3.16
daily life satisfaction (LSIB) scores, Before treatment (Parkinson's disease; PD patients, n=40): 12.59 ± 2.02
motor complications (UPDRS-IV) scores, 1 month after treatment (Parkinson's disease; PD patients, n=40): 2.93 ± 0.86
motor complications (UPDRS-IV) scores, 3 months after treatment (Parkinson's disease; PD patients, n=40): 2.46 ± 0.61
motor complications (UPDRS-IV) scores, 6 months after treatment (Parkinson's disease; PD patients, n=40): 2.15 ± 0.56
motor complications (UPDRS-IV) scores, 12 months after treatment (Parkinson's disease; PD patients, n=40): 1.79 ± 0.56
motor complications (UPDRS-IV) scores, Before treatment (Parkinson's disease; PD patients, n=40): 3.59 ± 1.02
motor function examination (UPDRS-III) scores, 1 month after treatment (Parkinson's disease; PD patients, n=40): 34.16 ± 7.91
motor function examination (UPDRS-III) scores, 3 months after treatment (Parkinson's disease; PD patients, n=40): 28.91 ± 6.61
motor function examination (UPDRS-III) scores, 6 months after treatment (Parkinson's disease; PD patients, n=40): 24.85 ± 6.56
motor function examination (UPDRS-III) scores, 12 months after treatment (Parkinson's disease; PD patients, n=40): 21.15 ± 6.56
motor function examination (UPDRS-III) scores, Before treatment (Parkinson's disease; PD patients, n=40): 37.99 ± 10.23
psychiatric, behavioral, and emotional scores (UPDRS-1), 1 month after treatment (Parkinson's disease; PD patients, n=40): 3.15 ± 0.81
psychiatric, behavioral, and emotional scores (UPDRS-1), 3 months after treatment (Parkinson's disease; PD patients, n=40): 2.29 ± 0.73
psychiatric, behavioral, and emotional scores (UPDRS-1), 6 months after treatment (Parkinson's disease; PD patients, n=40): 1.85 ± 0.53
psychiatric, behavioral, and emotional scores (UPDRS-1), 12 months after treatment (Parkinson's disease; PD patients, n=40): 1.79 ± 0.59
psychiatric, behavioral, and emotional scores (UPDRS-1), Before treatment (Parkinson's disease; PD patients, n=40): 3.59 ± 1.02
Curative effect for PD: Overall response rate (ORR) (Parkinson's disease; clinically cured, markedly effective and effective cases): 80%
Curative effect for PD: Clinically cured % (Parkinson's disease; of 40 cases): 0%
Curative effect for PD: Clinically cured n (Parkinson's disease; of 40 cases): 0
Curative effect for PD: Effective % (Parkinson's disease; of 40 cases): 32.2%
Curative effect for PD: Effective n (Parkinson's disease; of 40 cases): 13
Curative effect for PD: Ineffective % (Parkinson's disease; of 40 cases): 20.0%
Curative effect for PD: Ineffective n (Parkinson's disease; of 40 cases): 8
Curative effect for PD: Markedly effective % (Parkinson's disease; of 40 cases): 47.8%
Curative effect for PD: Markedly effective n (Parkinson's disease; of 40 cases): 19

NC(=O)CN1CC(O)CC1=O (centres unmarked) [Oxiracetam, oxiracetam]
concentration at 0.5 h ([1]; blood, read-out: Oxiracetam content in the blood): 82300 ng/mL
concentration at 0.5 h ([1]; brain, read-out: Oxiracetam content in the brain tissue): 173 ng/mL
Improvement rate of learning and memory (MCAO forebrain ischemia [2]): 56.9
Infarction area (MCAO forebrain ischemia [2]): 24.5%
Nerve regeneration rate (MCAO forebrain ischemia [2]): 85%
Space exploration distance (MCAO forebrain ischemia [2]): 54.0 cm

CC(C)=CCC[C@](C)(O[C@@H]1O[C@H](CO[C@@H]2O[C@H](CO)[C@@H](O)[C@H](O)[C@H]2O)[C@@H](O)[C@H](O)[C@H]1O)[C@H]1CC[C@]2(C)[C@@H]1[C@H](O)C[C@@H]1[C@@]3(C)CC[C@H](O[C@@H]4O[C@H](CO)[C@@H](O)[C@H](O)[C@H]4O[C@@H]4O[C@H](CO)[C@@H](O)[C@H](O)[C@H]4O)C(C)(C)[C@@H]3CC[C@]12C [Rb1, ginsenoside Rb1]
Rb1 content in brain tissues [6]: 4.12 ± 1.13 ng/g
Rb1 plasma concentration [6]: 3.35 ± 0.68 µg/mL
Improvement rate of cerebral infarction area (MCAO forebrain ischemia [7]): 22.1 ± 9.1%

CC(C)=CCC[C@](C)(O[C@@H]1O[C@H](CO)[C@@H](O)[C@H](O)[C@H]1O)[C@H]1CC[C@]2(C)[C@@H]1[C@H](O)C[C@@H]1[C@@]3(C)CC[C@H](O)C(C)(C)[C@@H]3[C@@H](O[C@@H]3O[C@H](CO)[C@@H](O)[C@H](O)[C@H]3O)C[C@]12C [Rg1, ginsenoside Rg1]
Improvement rate of cerebral infarction area (MCAO forebrain ischemia [8]): 26.1 ± 7.1%

C[C@@H]1O[C@@H](OC[C@H]2O[C@@H](Oc3c(-c4ccc(O)c(O)c4)oc4cc(O)cc(O)c4c3=O)[C@H](O)[C@@H](O)[C@@H]2O)[C@H](O)[C@H](O)[C@H]1O [Rutin]
solubility in boiling water ([3]; boiling water): soluble in boiling water
solubility in water [3]: not soluble in water

CCOC(=O)C1=C[C@]2(CC)CCCN3CCc4c(n1c1ccccc41)[C@@H]32 [Vinpocetine, vinpocetine]
concentration at 0.5 h ([1]; blood, read-out: Vinpocetine content in the blood): 84400 ng/mL
concentration at 0.5 h ([1]; brain, read-out: Vinpocetine content in the brain tissue): 124 ng/mL
Improvement rate of learning and memory (MCAO forebrain ischemia [2]): 59.9
Infarction area (MCAO forebrain ischemia [2]): 23.1%
Nerve regeneration rate (MCAO forebrain ischemia [2]): 87%
Space exploration distance (MCAO forebrain ischemia [2]): 56.2 cm

stilbene glucoside
Content of stilbene glucoside in brain tissues [9]: 40.2 ± 16.1 ng/g
Plasma concentration of stilbene glucoside [9]: 3350 ± 680 ng/mL
Improvement rate of learning and memory [10]: 31.6 ± 21.0%
Nerve regeneration rate [10]: 81.2 ± 35.6%
